Test results from paper PMC8792425 (Redox Biology, 2022).

Molecular target: T1, citrate synthase (CS) (Homo sapiens, UniProt O75390)
T1 sequence (O75390 28-466): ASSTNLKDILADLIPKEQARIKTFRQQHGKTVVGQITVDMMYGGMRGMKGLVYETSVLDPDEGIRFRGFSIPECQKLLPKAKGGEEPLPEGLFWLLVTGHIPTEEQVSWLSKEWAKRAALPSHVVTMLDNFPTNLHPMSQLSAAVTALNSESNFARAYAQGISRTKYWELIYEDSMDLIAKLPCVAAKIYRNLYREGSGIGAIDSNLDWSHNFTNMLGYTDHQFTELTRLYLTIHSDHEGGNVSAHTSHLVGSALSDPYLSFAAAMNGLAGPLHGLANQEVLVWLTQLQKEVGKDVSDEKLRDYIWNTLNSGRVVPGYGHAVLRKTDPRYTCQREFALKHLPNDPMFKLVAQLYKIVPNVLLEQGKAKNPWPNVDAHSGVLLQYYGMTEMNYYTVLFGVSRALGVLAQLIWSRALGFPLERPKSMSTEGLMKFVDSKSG
Experiment: DTNB-CoA absorbance at […] nm
Type: biochemical

Row | Compound | DTNB-CoA absorbance at 412 nm (with oxaloacetate and DTNB) | DTNB-CoA absorbance at 412 nm (with acetyl CoA and DTNB)
1 | CC(=O)SCCNC(=O)CCNC(=O)[C@H](O)C(C)(C)COP(=O)(O)OP(=O)(O)OC[C@H]1O[C@@H](n2cnc3c(N)ncnc32)[C@H](O)[C@@H]1OP(=O)(O)O [acetyl CoA] | oxaloacetate, acetyl CoA, and DTNB were incubated with protein lysates | –
2 | O=C(O)CC(=O)C(=O)O [oxaloacetate] | – | oxaloacetate, acetyl CoA, and DTNB were incubated with protein lysates
